From patent publication US20080312581A1, “Peptosomes for Use in Acoustically Mediated Intracellular Drug Delivery in vivo” (Biovaluation & Analysis, Inc., priority 2007, published 2008)

Test system: Henrietta Lacks (HeLa) cells and human aortic smooth muscle cells (AoSMC)
Experiment: Ultrasound-mediated peptosome rupture and intracellular calcein delivery, flow cytometry
Assay type: cell-based
Details: calcein released from peptosomes, contrast agent present
Excerpt: Ultrasound. Ultrasonic energy is produced using an immersible, focused, piezoceramic transducer. In this experimental system, two different matching resistance networks are necessary, allowing production of sound at 1.0 MHz and 3.0 MHz, similar to a method known in the art (Guzmán et al., 2001a, 2001b, 2002, and 2003; and […] et al., 2006). A sinusoidal waveform is produced by, for example, programmable waveform generators (Stanford Research Instruments, Sunnyvale, Calif.) used in conjunction to control pulse length, frequency, and peak-to-peak voltage. The sinusoidal waveform is amplified by an RF broadband power amplifier (Electronic Navigation Industries, Rochester, N.Y.) before passing through a matching network and controlling the response of the transducer. The transducer is housed in a polycarbonate tank (FIG. 11 [601]) -34.5×32×40 cm; containing approximately 34 liters of deionized, distilled, and partially degassed water at room temperature (i.e., 22° C. to 23° C.). A thick acoustic absorber is mounted opposite the transducer to minimize standing-wave formation (not illustrated). […] A metal rod (606) is immediately inserted into the open end of the sample chamber and then attached to the three-axis positioning system (603), placing the sample in the desired location as determined by the hydrophone (604). […]

O=C(O)CN(CC(=O)O)Cc1cc2c(cc1O)Oc1cc(O)c(CN(CC(=O)O)CC(=O)O)cc1C21OC(=O)c2ccccc21 [calcein, Calcein]
calcein uptake into cells (mild ultrasound conditions): low levels
calcein uptake into cells (moderate ultrasound conditions): as many as one-third of cells
